Assay results: the supplement of paper PMC10307832

Legend:
Assay in all cases: relative viability (nuclei count vs DMSO), 5 days (fraction); higher = more cells survive
Pifithrin_alpha = compound: CC1=CC=C(C=C1)C(=O)CN2C3=C(CCCC3)SC2=N [Pifithrin_alpha]
Method in brief: (§1)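 Following overnight incubation at 37 °C, lung cancer cell lines in 1536-well plates were pinned with five library-drug doses (not always all listed) in √10 steps on vehicle-anchored plates. The cells then spent 5 days without medium change before a combined fix, permeabilisation and Hoechst stain, 4× imaging and MetaXpress nuclear counts. Viability is the treated-to-vehicle ratio of nuclei, taken as the median across plates. Only plates with control CV below 25% and at least one doubling passed.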

Axitinib = compound: CNC(=O)c1ccccc1Sc1ccc2c(/C=C/c3ccccn3)n[nH]c2c1 [Axitinib]
Method in brief: as §1

Bemcentinib = compound: Nc1nc(Nc2ccc3c(c2)CC[C@@H](N2CCCC2)CC3)nn1-c1cc2c(nn1)-c1ccccc1CCC2 [Bemcentinib]
Method in brief: as §1

Axitinib + Vorinostat = compound: CNC(=O)c1ccccc1Sc1ccc2c(/C=C/c3ccccn3)n[nH]c2c1 [Axitinib] + O=C(CCCCCCC(=O)Nc1ccccc1)NO [Vorinostat] (partner 1 µM)
Method in brief: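 Lung cancer cell lines were seeded in 1536-well plates and dosed by pin tool the next day, with either a single drug or a fixed anchor-drug dose combined with five library-drug doses (not always all listed) spaced in √10 steps. Five days later, one step fixed the cells and stained their nuclei (final 0.05% Triton X-100, 1% formaldehyde, 1 ug/ml Hoechst), and nuclei were counted on 4× images. Relative viability is the nuclei count in treated wells divided by the count in vehicle wells, and each value is the median of duplicate plates.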

For NCI-H650, which relative viability (Pifithrin_alpha; 3.162 µM) is on record?
The relative viability was 0.912.

And the relative viability (Pifithrin_alpha; 10 µM)?
Its relative viability is 1.07.

What about the relative viability (Pifithrin_alpha; 31.62 µM) of the same cell line?
Its relative viability is 0.766.

What about the relative viability (Pifithrin_alpha; 100 µM) of the same cell line?
Its relative viability is 0.863.

And the relative viability (Axitinib; 0.005 µM)?
The relative viability was 1.01.

What about the relative viability (Axitinib; 0.01581 µM) of the same cell line?
Its relative viability is 0.983.

What about the relative viability (Axitinib; 0.05 µM) of the same cell line?
The relative viability was 0.892.

What about the relative viability (Axitinib; 0.1581 µM) of the same cell line?
The relative viability was 1.1.

What about the relative viability (Axitinib; 0.5 µM) of the same cell line?
The relative viability was 1.01.

And the relative viability (Bemcentinib; 0.04 µM)?
The relative viability was 0.866.

And the relative viability (Bemcentinib; 0.1265 µM)?
The relative viability was 1.01.

And the relative viability (Bemcentinib; 0.4 µM)?
Its relative viability is 1.15.

And the relative viability (Bemcentinib; 1.265 µM)?
Its relative viability is 0.838.

What about the relative viability (Bemcentinib; 4 µM) of the same cell line?
The relative viability was 0.871.

What about the relative viability (Axitinib + Vorinostat; first compound 0.005 µM) of the same cell line?
The relative viability was 0.371.

What about the relative viability (Axitinib + Vorinostat; first compound 0.01581 µM) of the same cell line?
The relative viability was 0.452.

And the relative viability (Axitinib + Vorinostat; first compound 0.05 µM)?
Its relative viability is 0.448.

And the relative viability (Axitinib + Vorinostat; first compound 0.1581 µM)?
Its relative viability is 0.459.

And the relative viability (Axitinib + Vorinostat; first compound 0.5 µM)?
Its relative viability is 0.366.
